Test results: ChEMBL document CHEMBL2086238, “Identification of ETP-46321, a potent and orally bioavailable PI3K α, δ inhibitor” (Bioorg Med Chem Lett, 2012)

Legend:
[1] = target: Dual specificity tyrosine-phosphorylation-regulated kinase 1A (Homo sapiens) (UniProt Q13627); assay: Inhibition of DYRK1A at 1 uM
[2] = target: Dual specificity mitogen-activated protein kinase kinase 1 (Homo sapiens) (UniProt Q02750); assay: Inhibition of MEK1 at 1 uM
[3] = target: Casein kinase I isoform alpha (Homo sapiens) (UniProt P48729); assay: Inhibition of CK1alpha1 at 5 uM
[4] = target: Receptor-type tyrosine-protein kinase FLT3 (Homo sapiens) (UniProt P36888); assay: Inhibition of FLT3 at 5 uM
[5] = target: Serine/threonine-protein kinase pim-1 (Homo sapiens) (UniProt P11309); assay: Inhibition of PIM1 at 5 uM
[6] = target: T1, NUAK family SNF1-like kinase 1 (Homo sapiens) (UniProt O60285); assay: Inhibition of ARK5 at 1 uM
T1 sequence (whole entry): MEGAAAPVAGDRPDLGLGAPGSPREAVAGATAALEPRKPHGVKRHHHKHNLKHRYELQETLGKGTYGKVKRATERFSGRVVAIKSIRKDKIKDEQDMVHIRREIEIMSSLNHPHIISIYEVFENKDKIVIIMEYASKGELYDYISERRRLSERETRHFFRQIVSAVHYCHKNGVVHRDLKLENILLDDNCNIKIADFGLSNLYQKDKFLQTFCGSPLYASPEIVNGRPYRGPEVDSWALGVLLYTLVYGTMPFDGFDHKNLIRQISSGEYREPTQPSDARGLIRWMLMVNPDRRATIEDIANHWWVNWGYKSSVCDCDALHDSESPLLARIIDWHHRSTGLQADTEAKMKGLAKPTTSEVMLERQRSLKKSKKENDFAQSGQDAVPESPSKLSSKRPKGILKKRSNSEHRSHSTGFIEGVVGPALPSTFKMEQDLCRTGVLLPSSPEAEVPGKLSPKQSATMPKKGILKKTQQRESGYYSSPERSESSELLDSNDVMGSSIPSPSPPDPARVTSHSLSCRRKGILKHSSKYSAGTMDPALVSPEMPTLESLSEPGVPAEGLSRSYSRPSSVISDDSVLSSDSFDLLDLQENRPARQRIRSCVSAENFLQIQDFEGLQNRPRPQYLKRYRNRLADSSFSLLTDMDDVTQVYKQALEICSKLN

[7] = target: Fibroblast growth factor receptor 1 (Homo sapiens) (UniProt P11362); assay: Inhibition of FGFR1 at 1 uM
[8] = Stability in human liver microsomes at 1 uM incubated for 15 mins; format: ADME, Microsome; conditions: read-out: Stability
CYP1A2 = target: T2, CYP1A2 (Homo sapiens, UniProt P05177); assay: Inhibition of CYP1A2 at 10 uM; format: ADME
T2 sequence (P05177 whole entry): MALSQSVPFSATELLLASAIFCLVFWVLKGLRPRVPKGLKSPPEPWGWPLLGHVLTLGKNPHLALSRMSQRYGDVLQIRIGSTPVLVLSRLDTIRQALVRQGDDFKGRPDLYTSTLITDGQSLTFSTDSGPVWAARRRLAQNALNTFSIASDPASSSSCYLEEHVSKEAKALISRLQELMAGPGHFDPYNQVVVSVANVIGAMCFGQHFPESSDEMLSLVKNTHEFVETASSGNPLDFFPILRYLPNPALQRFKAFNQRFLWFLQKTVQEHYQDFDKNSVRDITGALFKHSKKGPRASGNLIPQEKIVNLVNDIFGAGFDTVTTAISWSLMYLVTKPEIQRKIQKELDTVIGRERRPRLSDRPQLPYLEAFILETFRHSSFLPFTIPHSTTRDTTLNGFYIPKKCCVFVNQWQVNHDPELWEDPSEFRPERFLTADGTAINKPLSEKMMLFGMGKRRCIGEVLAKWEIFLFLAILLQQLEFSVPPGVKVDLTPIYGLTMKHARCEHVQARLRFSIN

[9] = target: T3, Inhibitor of nuclear factor kappa-B kinase subunit beta (Homo sapiens) (UniProt O14920); assay: Inhibition of IKKbeta at 1 uM
T3 sequence (whole entry): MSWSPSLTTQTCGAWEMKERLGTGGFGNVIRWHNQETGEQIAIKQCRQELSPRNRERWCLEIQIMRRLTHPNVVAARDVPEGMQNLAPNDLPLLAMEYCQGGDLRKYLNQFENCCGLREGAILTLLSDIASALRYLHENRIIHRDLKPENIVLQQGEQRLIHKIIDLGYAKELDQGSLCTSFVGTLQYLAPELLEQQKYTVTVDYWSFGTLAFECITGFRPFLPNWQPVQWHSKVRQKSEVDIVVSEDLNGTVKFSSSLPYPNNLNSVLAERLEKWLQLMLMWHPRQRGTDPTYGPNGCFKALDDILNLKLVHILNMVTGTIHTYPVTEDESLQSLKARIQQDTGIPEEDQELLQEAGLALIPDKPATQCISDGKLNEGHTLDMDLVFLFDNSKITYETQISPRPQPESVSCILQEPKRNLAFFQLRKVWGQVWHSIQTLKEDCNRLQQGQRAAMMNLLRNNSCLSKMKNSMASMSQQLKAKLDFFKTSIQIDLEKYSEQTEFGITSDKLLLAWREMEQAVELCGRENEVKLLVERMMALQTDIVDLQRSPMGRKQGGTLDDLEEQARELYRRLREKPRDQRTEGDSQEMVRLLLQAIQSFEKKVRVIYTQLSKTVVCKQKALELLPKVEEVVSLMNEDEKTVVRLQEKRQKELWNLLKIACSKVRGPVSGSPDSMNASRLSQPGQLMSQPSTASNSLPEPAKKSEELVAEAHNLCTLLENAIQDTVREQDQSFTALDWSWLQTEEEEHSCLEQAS

[10] = target: Hepatocyte growth factor receptor (Homo sapiens) (UniProt P08581); assay: Inhibition of MET at 5 uM
[11] = target: Dual specificity mitogen-activated protein kinase kinase 1 (Homo sapiens) (UniProt Q02750); assay: Inhibition of MEK1 at 5 uM
[12] = target: Tyrosine-protein kinase JAK2 (Homo sapiens) (UniProt O60674); assay: Inhibition of JAK2 at 1 uM
[13] = target: RAC-alpha serine/threonine-protein kinase (Homo sapiens) (UniProt P31749); assay: Inhibition of AKT1 at 5 uM
[14] = target: Dual specificity tyrosine-phosphorylation-regulated kinase 1A (Homo sapiens) (UniProt Q13627); assay: Inhibition of DYRK1A at 5 uM
[15] = target: Mast/stem cell growth factor receptor Kit (Homo sapiens) (UniProt P10721); assay: Inhibition of KIT at 1 uM
[16] = target: Epidermal growth factor receptor (Homo sapiens) (UniProt P00533); assay: Inhibition of EGFR at 1 uM
[17] = target: PI3-kinase p110-alpha/p85-alpha (Homo sapiens, UniProt P42336); assay: Inhibition of human PI3Kalpha (p110alpha/p85alpha) by ADP accumulation based HTRF assay; format: protein-complex assay; conditions: for Ki: read-out: Ki(app)
[18] = test system: Serine/threonine-protein kinase B-raf (Homo sapiens), P15056 [V600E]; assay: Inhibition of BRAF V600E mutant at 5 uM
[19] = target: T3, Inhibitor of nuclear factor kappa-B kinase subunit beta (Homo sapiens); assay: Inhibition of IKKbeta at 5 uM
[20] = target: Insulin-like growth factor 1 receptor (Homo sapiens) (UniProt P08069); assay: Inhibition of IGF1R at 5 uM
[21] = target: Mitogen-activated protein kinase 8 (Homo sapiens) (UniProt P45983); assay: Inhibition of JNK1 at 1 uM

RAC-alpha serine/threonine-protein kinase (Homo sapiens), sequence (P31749 whole entry): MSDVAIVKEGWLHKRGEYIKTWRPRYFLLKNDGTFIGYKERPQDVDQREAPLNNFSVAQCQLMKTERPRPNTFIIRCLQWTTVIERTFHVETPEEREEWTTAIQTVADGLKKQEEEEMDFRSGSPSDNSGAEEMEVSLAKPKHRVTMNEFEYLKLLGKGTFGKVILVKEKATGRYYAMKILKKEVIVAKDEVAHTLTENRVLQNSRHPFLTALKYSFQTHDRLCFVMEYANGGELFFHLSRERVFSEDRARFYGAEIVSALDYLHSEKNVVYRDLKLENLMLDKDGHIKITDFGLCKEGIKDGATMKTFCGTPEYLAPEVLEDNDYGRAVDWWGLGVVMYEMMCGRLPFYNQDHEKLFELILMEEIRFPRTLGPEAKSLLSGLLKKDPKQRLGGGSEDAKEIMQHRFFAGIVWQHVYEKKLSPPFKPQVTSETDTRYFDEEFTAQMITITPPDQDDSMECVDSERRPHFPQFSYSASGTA
Hepatocyte growth factor receptor (Homo sapiens), sequence (P08581 whole entry): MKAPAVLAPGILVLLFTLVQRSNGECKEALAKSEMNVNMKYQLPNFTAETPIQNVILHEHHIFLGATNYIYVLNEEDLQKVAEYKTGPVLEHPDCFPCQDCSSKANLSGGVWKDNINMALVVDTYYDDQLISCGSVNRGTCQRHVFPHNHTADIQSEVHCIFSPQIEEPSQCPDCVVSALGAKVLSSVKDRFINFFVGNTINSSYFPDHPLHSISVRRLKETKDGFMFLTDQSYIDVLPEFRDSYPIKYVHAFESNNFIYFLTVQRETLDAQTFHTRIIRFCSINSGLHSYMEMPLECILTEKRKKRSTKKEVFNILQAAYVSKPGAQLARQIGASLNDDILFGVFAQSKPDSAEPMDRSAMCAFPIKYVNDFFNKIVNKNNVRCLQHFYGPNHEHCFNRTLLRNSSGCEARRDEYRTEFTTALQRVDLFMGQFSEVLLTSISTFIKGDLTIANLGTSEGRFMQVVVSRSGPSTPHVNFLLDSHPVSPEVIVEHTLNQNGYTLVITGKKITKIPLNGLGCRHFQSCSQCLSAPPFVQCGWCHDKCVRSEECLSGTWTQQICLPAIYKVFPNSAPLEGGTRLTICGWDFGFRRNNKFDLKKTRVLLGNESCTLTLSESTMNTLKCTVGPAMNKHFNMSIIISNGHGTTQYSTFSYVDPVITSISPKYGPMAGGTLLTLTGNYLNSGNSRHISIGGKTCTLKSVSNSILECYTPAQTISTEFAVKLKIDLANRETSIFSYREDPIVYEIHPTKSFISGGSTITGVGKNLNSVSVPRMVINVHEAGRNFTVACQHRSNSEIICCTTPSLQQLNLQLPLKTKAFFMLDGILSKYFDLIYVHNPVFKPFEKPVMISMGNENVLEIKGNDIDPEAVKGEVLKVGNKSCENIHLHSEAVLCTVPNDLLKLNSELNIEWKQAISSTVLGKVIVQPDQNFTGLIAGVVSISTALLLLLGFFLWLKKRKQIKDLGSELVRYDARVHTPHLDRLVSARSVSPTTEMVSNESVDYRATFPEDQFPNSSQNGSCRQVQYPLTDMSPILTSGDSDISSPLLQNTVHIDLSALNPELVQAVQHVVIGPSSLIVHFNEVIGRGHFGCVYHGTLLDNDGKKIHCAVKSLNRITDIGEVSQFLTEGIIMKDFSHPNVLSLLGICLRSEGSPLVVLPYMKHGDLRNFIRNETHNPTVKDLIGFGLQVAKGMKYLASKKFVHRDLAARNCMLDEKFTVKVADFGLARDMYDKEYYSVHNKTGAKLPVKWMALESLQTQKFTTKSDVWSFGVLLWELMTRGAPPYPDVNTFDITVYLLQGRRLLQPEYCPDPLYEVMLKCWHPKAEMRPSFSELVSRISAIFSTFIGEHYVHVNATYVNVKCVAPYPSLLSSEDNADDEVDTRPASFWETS
PI3-kinase p110-alpha/p85-alpha, sequence (P27986 whole entry): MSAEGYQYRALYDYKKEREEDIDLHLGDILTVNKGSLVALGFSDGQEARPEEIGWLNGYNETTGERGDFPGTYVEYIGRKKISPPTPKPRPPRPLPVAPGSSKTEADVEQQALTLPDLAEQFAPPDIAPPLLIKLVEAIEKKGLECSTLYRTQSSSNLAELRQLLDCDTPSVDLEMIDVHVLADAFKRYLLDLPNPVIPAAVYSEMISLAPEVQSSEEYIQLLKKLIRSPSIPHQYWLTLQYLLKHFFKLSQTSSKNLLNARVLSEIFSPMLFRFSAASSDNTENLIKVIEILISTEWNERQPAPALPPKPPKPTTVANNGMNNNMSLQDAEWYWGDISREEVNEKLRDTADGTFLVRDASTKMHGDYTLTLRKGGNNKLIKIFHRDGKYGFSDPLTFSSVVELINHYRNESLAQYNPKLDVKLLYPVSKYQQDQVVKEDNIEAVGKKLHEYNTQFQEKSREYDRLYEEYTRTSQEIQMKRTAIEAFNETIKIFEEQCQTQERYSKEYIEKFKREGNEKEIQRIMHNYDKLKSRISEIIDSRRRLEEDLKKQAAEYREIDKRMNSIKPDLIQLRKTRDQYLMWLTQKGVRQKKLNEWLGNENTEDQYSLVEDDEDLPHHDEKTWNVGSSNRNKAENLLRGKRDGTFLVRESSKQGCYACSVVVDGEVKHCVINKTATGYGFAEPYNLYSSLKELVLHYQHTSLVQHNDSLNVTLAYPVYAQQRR
PI3-kinase p110-alpha/p85-alpha, sequence (P42336 whole entry): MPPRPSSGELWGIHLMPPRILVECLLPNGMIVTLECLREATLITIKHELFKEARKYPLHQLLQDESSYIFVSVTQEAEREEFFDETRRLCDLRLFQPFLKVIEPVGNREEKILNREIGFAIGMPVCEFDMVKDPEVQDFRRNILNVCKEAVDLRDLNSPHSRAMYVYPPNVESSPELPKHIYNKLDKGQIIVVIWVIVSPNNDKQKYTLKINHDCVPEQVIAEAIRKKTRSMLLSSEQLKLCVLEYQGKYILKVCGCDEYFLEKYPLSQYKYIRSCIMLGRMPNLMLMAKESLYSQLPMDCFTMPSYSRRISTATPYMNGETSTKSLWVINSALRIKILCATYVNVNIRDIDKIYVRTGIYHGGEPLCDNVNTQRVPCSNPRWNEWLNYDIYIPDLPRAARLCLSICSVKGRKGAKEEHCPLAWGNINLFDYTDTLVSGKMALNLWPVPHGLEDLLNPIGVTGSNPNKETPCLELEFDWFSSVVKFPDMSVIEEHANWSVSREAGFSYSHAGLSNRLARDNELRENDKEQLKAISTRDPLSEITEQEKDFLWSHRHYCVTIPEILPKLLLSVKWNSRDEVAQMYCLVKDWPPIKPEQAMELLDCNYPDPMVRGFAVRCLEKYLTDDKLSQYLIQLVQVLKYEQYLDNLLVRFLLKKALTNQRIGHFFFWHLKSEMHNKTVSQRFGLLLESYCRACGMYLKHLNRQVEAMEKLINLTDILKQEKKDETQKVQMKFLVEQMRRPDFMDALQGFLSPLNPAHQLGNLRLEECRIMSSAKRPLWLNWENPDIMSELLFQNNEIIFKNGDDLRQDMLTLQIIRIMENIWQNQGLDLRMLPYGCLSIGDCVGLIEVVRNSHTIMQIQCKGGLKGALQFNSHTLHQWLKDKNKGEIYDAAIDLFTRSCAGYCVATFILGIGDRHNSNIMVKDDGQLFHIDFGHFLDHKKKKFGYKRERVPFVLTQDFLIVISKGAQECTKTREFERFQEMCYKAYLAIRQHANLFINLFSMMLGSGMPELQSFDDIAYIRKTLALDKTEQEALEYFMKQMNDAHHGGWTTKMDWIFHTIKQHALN
Serine/threonine-protein kinase B-raf (Homo sapiens), P15056 [V600E], sequence (P15056 whole entry V600E): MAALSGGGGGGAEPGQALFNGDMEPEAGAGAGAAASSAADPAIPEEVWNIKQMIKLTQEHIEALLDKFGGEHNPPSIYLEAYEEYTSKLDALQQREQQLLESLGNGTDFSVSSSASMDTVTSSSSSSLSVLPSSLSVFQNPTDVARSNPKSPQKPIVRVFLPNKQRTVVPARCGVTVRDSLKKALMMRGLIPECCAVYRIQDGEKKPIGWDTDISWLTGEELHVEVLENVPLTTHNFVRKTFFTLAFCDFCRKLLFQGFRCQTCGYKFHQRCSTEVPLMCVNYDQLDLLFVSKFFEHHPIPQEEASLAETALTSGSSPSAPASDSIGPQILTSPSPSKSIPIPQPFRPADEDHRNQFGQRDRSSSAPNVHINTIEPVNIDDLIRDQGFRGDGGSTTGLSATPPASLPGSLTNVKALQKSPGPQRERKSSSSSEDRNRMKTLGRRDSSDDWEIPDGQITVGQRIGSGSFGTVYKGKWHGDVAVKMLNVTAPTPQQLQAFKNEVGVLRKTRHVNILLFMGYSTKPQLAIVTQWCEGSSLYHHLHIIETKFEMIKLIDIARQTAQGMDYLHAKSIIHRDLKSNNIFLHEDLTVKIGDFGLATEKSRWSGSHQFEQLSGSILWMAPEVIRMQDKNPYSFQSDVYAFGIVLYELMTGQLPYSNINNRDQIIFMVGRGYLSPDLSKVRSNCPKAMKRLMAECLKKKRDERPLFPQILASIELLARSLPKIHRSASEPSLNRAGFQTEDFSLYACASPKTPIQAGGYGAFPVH
Serine/threonine-protein kinase pim-1 (Homo sapiens), sequence (P11309 whole entry, looked up): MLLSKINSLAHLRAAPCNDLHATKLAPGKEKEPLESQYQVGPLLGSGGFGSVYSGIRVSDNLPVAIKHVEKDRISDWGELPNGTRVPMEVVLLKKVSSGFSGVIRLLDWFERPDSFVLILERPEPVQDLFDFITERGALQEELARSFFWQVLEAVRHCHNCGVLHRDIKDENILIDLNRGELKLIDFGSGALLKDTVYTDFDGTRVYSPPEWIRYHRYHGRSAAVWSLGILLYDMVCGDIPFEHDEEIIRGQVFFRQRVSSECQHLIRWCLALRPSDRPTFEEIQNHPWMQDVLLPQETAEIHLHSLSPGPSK
Casein kinase I isoform alpha (Homo sapiens), sequence (P48729 2-337 limits assumed): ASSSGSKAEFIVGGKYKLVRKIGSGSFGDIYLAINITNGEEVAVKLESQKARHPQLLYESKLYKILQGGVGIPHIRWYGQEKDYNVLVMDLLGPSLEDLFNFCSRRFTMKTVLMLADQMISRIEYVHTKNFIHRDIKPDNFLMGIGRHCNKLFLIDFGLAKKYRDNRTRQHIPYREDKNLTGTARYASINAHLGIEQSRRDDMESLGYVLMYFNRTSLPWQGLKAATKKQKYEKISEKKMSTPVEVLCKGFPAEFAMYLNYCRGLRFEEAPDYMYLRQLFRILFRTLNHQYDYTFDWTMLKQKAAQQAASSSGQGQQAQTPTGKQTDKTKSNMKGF

Cc1c(CN2CCN(S(C)(=O)=O)CC2)nc2c(N3CCOCC3)nc(-c3cnc(N)nc3)cn12
88%: remaining at 0.25 h, 1 µM [8]
10.1 nM: Ki [17]
< 30%: inhibition [1] | inhibition [2] | inhibition [3] | inhibition [4] | inhibition [5] | inhibition [6] | inhibition [7] | inhibition at 10 µM (CYP1A2) | inhibition [9] | inhibition [10] | inhibition [11] | inhibition [12] | inhibition [13] | inhibition [14] | inhibition [15] | inhibition [16] | inhibition [18] | inhibition [19] | inhibition [20] | inhibition [21]
10 nM: IC50 [17]

CS(=O)(=O)N1CCN(Cc2cn3cc(-c4cnc(N)nc4)nc(N4CCOCC4)c3n2)CC1
93%: remaining at 0.25 h, 1 µM [8]
< 30%: inhibition [1] | inhibition [2] | inhibition [3] | inhibition [4] | inhibition [5] | inhibition [6] | inhibition [7] | inhibition at 10 µM (CYP1A2) | inhibition [9] | inhibition [10] | inhibition [11] | inhibition [12] | inhibition [13] | inhibition [14] | inhibition [15] | inhibition [16] | inhibition [18] | inhibition [19] | inhibition [20] | inhibition [21]

Cc1nc(N)ncc1-c1cn2cc(CN3CCN(S(C)(=O)=O)CC3)nc2c(N2CCOCC2)n1
< 30%: inhibition [1] | inhibition [2] | inhibition [3] | inhibition [4] | inhibition [5] | inhibition [6] | inhibition [7] | inhibition [9] | inhibition [10] | inhibition [11] | inhibition [12] | inhibition [13] | inhibition [14] | inhibition [15] | inhibition [16] | inhibition [18] | inhibition [19] | inhibition [20] | inhibition [21]

CS(=O)(=O)N1CCN(Cc2cn3c(Cl)c(-c4cnc(N)nc4)nc(N4CCOCC4)c3n2)CC1
< 30%: inhibition [1] | inhibition [2] | inhibition [3] | inhibition [4] | inhibition [5] | inhibition [6] | inhibition [7] | inhibition at 10 µM (CYP1A2) | inhibition [9] | inhibition [10] | inhibition [11] | inhibition [12] | inhibition [13] | inhibition [14] | inhibition [15] | inhibition [16] | inhibition [18] | inhibition [19] | inhibition [20] | inhibition [21]
2.4 nM: Ki [17]
86%: remaining at 0.25 h, 1 µM [8]

CS(=O)(=O)N1CCN(Cc2nc3c(N4CCOCC4)nc(-c4cnc(N)nc4)cn3c2Br)CC1
70%: remaining at 0.25 h, 1 µM [8]
0.7 nM: IC50 [17]
< 30%: inhibition [1] | inhibition [2] | inhibition [3] | inhibition [4] | inhibition [5] | inhibition [6] | inhibition [7] | inhibition at 10 µM (CYP1A2) | inhibition [9] | inhibition [10] | inhibition [11] | inhibition [12] | inhibition [13] | inhibition [14] | inhibition [15] | inhibition [16] | inhibition [18] | inhibition [19] | inhibition [20] | inhibition [21]
